{"source": "patent US20250025518A1", "about": "“USE OF BIFIDOBACTERIUM LACTIS BL-99 IN PROTECTION OF CARTILAGE” (Inner Mongolia Yili Industrial Group Co., Ltd., priority 2021, published 2025)", "test_system": "zebrafish cartilage", "assay": "Evaluation of cartilage protection efficacy: fluorescence intensity of cartilage in dexamethasone-induced zebrafish cartilage damage model", "assay_type": "in vivo", "conditions": "for Fluorescence intensity of cartilage (pixel, mean ± SE): n = 10", "data": [{"substance": "Chondroitin sulfate A sodium salt", "values": [{"measurement": "Fluorescence intensity of cartilage (pixel, mean ± SE)", "setting": "Table 2, 1000 μg/mL", "value": "277530 ± 20981", "unit": "pixel"}, {"measurement": "Increased cartilage protection efficacy (%) compared with the model group", "setting": "Table 3, 1000 μg/mL", "value": 44, "unit": "%"}, {"measurement": "Fluorescence intensity of cartilage (pixel, mean ± SE)", "setting": "Table 3, 1000 μg/mL", "value": "296517 ± 25160", "unit": "pixel"}]}]}
